One data set can be described thus: pH of the water solution. Format: physicochemical. Conditions: water solution obtained in the preparation. Here is the method:
After about 10 minutes of stirring under the above conditions, a 50% solution of 14 g of lysine base was slowly added. The reaction mixture was little by little solubilized and the pH final value of the resulting solution was 7.5. The volume of the obtained solution was brought to the end value of 150 mls by adding cold distilled water. It was then sterile filtered and frozen in a prefreezer at -70° C. and finally lyophilized.

A short description of data set [1]: Cephalexin microbiological title.
The next data set is described as follows: Solubility. It is filed as physicochemical. Conditions: for Solubility in alcohols: ethanol / absolute alcohols.
The nature of data set [2]: Toxicity in the mouse (LD50). Conditions: in vivo. The text has this: (§1) Pharmacological and clinical tests have been carried out with the compounds of the invention and the results related to the lysine salt of 2-N-methylolcephalexin are hereinafter reported for illustrative purpose.
Data set [3] is described as follows: Toxicity in the rat (LD50). Conditions: in vivo, po, per os.
Excerpt: as §1

The nature of a further data set: clinical. Conditions: human, in vivo, po.
For data set [4] the following is noted: well known; cited from earlier work.
The conditions of data set [5]: in vivo, po.

By LD50 is commonly meant the dose expected to kill half of the subjects tested. The low end stands for greater toxicity, the high end for lower toxicity.

Counter-ions that a name gives are not always drawn.

Take `CC1=C(C(=O)O)N2C(=O)[C@@H](NC(=O)[C@H](NCO)c3ccccc3)[C@H]2SC1` [Example 1, Lysine salt of 2-N-methylol-cephalexin]: in the data set “pH of the water solution”, the “Final pH of the resulting solution” value is 7.5. In addition, the Cephalexin microbiological title in data set [1] is on record as 99 to 100 % of theoretical value. In addition, the Solubility in alcohols result in the data set “Solubility” is given as “little soluble in absoluble alcohols”. Also, the Solubility in water entry in the data set “Solubility” is listed as “cold soluble in water”. The LD50 in data set [2] (ip, intraperitoneal administration) was 3100 mg/kg; in data set [2] (oral administration) it was greater than 4000 mg/kg; in data set [3] it was greater than 4000 mg/kg. This molecule also showed a dose excreted at 24 h in “clinical” of 87%.

For `CC1=C(C(=O)O)N2C(=O)[C@@H](NC(=O)[C@H](NCO)c3ccccc3)[C@H]2SC1` [Example 2, Sodium salt of 2-N-methylol-cephalexin], the “Final pH of the resulting solution” value in “pH of the water solution” was 7.1. Besides, the Cephalexin microbiological title in data set [1] is listed as 99 to 102 % of theoretical value. For the same molecule, in the data set “Solubility”, the Solubility in alcohols result is “little soluble in ethanol and absolute alcohols”; the Solubility in water result is “highly water soluble”.

Take `CC1=C(C(=O)O)N2C(=O)[C@@H](NC(=O)[C@H](N)c3ccccc3)[C@H]2SC1` [cephalexin, 7-(D-2-amino-2-phenylacetamido)-3-methyl-Δ^3-4-carboxylic acid]: the Antibiotic utility entry in data set [4] is “wide spectrum antibiotic”.

Turning to `CC1=C(C(=O)O)N2C(=O)[C@@H](NC(=O)[C@H](N)c3ccccc3)[C@H]2SC1` [substance B, cephalexin monohydrated], in data set [5], the “Presence in the blood stream” value was “higher” and the “Time after administration at which actives concentrations are detected” value was “more than 6 hours”.

Values taken from US4471115A, “Water soluble derivatives of cephalex and process for their preparation” (Neopharmed S.p.A., priority 1980, dated 1984).
